Source: patent publication US12187705B2, “Heteroaryl-triazole and heteroaryl-tetrazole compounds as pesticides” (Bayer Aktiengesellschaft, priority 2018, dated 2025)

Tests used:
Assay type in all cases: in vivo
Diabrotica balteata = Diabrotica balteata spray test; details: Diabrotica balteata, 168 h; 160 μg/well, wheat seeds, after 7 days; read-out: efficacy (seedlings grown)
In short: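 Efficacy (%) read 7 days after infesting treated seedlings with 10-20 banded cucumber beetle larvae, 100% meaning growth as in uninfected untreated control and 0% no growth. Test solutions in water containing 1000 ppm emulsifier were sprayed onto wheat seeds germinated for 1 day on agar.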

Nezara viridula = Nezara viridula spray test; details: in Hordeum vulgare, 96 h
In short: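 Barley plants infested with stink bug larvae were sprayed with compound diluted in water containing 1000 ppm emulsifier. Mortality (%) was scored after 4 days, 100% meaning all bugs killed.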

[1] = system: Musca domestica strain WHO-N; assay: Musca domestica test (MUSCDO surface treatment & contact assay); details: 24 hours after contact, read-out: efficacy (mortality); for mortality at 20 mg/m2: surface concentration 20 mg/m^2, 30 minutes exposure
Method: Musca domestica Test (MUSCDO Surface Treatment & Contact Assay)
(§1) Solvent: Aceton+2000 ppm rapeseed oil methyl ester (RME)
In order to produce a sufficient, active ingredient containing solution it is necessary to solve the test-compound in the solvent-mix (Acetone at 2 mg/ml/RME 2000 ppm). This solution is pipetted onto a glazed tile and after evaporation of the Acetone, adult flies of the species Musca domestica strain WHO-N are placed onto the dried surface. The exposure time is 30 minutes.
(§2) Mortality in percent (%) is determined 24 hours after contact to the treated surface. 100% mortality means that all test-insects are dead, whereas 0% means that not a single insect died.

Spodoptera frugiperda = Spodoptera frugiperda spray test; details: in Zea mays, 168 h
Method: Spodoptera frugiperda—Spray Test
(§3) To produce a suitable preparation of active compound, 1 part by weight of active compound is mixed with the stated amount of solvents and is diluted with water, containing an emulsifier concentration of 1000 ppm, to the desired concentration. Further test concentrations are prepared by dilution with emulsifier containing water.
Maize (Zea mays) leaf sections are sprayed with a preparation of the active ingredient of the desired concentration. Once dry, the leaf sections are infested with fall armyworm larvae (Spodoptera frugiperda).
After 7 days mortality in % is determined. 100% means all caterpillars have been killed and 0% means none of the caterpillars have been killed.

[2] = system: Culex quinquefasciatus strain P00; assay: Culex quinquefasciatus test (CULXFA surface treatment & contact assay); details: 24 hours after contact, read-out: efficacy (mortality); for mortality at 4 mg/m2: surface concentration 4 mg/m^2, 30 minutes exposure; for mortality at 20 mg/m2: surface concentration 20 mg/m^2, 30 minutes exposure
In short: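 Compound dissolved in acetone (2 mg/ml) with 2000 ppm rapeseed oil methyl ester, applied to glazed tile and dried. Adult strain P00 mosquitoes exposed to the surface for 30 minutes. Percent mortality scored 24 hours after contact.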

[3] = system: Anopheles funestus strain FUMOZ-R; assay: Anopheles funestus test (ANPHFU surface treatment & contact assay); details: 24 hours after contact, read-out: efficacy (mortality); for mortality at 20 mg/m2: surface concentration 20 mg/m^2, 30 minutes exposure; for mortality at 4 mg/m2: surface concentration 4 mg/m^2, 30 minutes exposure
Method: Anopheles funestus Test (ANPHFU Surface Treatment & Contact Assay)
as §1
In order to produce a sufficient, active ingredient containing solution it is necessary to solve the test-compound in the solvent-mix (Acetone at 2 mg/ml/RME 2000 ppm). This solution is pipetted onto a glazed tile and after evaporation of the Acetone, adult mosquitoes of the species Anopheles funestus strain FUMOZ-R (Hunt et al., Med Vet Entomol. 2005 September; 19(3):271-5) are placed onto the dried surface. The exposure time is 30 minutes.
as §2

[4] = system: Aedes aegypti strain MONHEIM; assay: Aedes aegypti test (AEDSAE surface treatment & contact assay); details: 24 hours after contact, read-out: efficacy (mortality); for mortality at 4 mg/m2: surface concentration 4 mg/m^2, 30 minutes exposure; for mortality at 20 mg/m2: surface concentration 20 mg/m^2, 30 minutes exposure
In short: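 Compound dissolved in acetone (2 mg/ml) with 2000 ppm rapeseed oil methyl ester and dried onto a glazed tile. Adult mosquitoes held on the treated surface for 30 minutes exposure. Percent mortality scored 24 hours after contact.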

Ctenocephalides felis [5] = assay: Ctenocephalides felis in-vitro contact test adult cat flea; details: Ctenocephalides felis; 5 μg/cm^2 (=500 g/ha), after 48 hours; read-out: efficacy (fleas dead or moribund)
In short: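 Efficacy (% dead or moribund) was scored 48 h after adult Ctenocephalides felis were confined in tubes coated with the acetone-applied compound (900 ppm, 5 μg/cm^2). Moribund status was judged by failure to escape a 45-50° C heating plate within 5 minutes.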

Myzus persicae [6] = assay: Myzus persicae spray test; details: in Brassica rapa, foliar, 120 h
Method: Myzus persicae—Spray Test
as §3
Chinese cabbage (Brassica pekinensis) leaf disks infected with all instars of the green peach aphid (Myzus persicae), are sprayed with a preparation of the active ingredient of the desired concentration.
After 5 days mortality in % is determined. 100% means all aphids have been killed and 0% means none of the aphids have been killed.

Myzus persicae [7] = assay: Myzus persicae oral test; details: 120 h
In short: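 Feeding test: compound diluted in water was combined with IPL41 insect medium (33%+15% sugar) under a parafilm seal. A mixed population of green peach aphids fed through the membrane. Mortality (%) was scored after 5 days.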

Nilaparvata lugens = Nilaparvata lugens spray test; details: Nilaparvata lugens, in Oryza sativa, 96 h
Method: Nilaparvata lugens—Spray Test
as §3
Rice plants (Oryza sativa) are sprayed with a preparation of the active ingredient of the desired concentration and the plants are infested with the brown planthopper (Nilaparvata lugens).
After 4 days mortality in % is determined. 100% means all planthoppers have been killed and 0% means none of the planthoppers have been killed.

Boophilus microplus = Boophilus microplus injection test; details: Rhipicephalus microplus, 168 h, 20 μg/animal, egg deposition after 7 days, read-out: efficacy (infertile eggs)
In short: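 Efficacy expresses the share of infertile eggs (100% all infertile, 0% all fertile), judged at 7 days or at hatching around day 42. Five adult engorged females were each injected abdominally with 1 μl of DMSO compound solution and incubated in a climate chamber.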

Ctenocephalides felis [8] = assay: Ctenocephalides felis oral test; details: Ctenocephalides felis, in Bos taurus, po, 48 h
In short: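 About 20 adult unfed fleas fed through parafilm on cattle blood containing compound (DMSO concentrate diluted in blood); blood held at 37° C., fleas at room temperature. Mortality in % scored after 2 days (100% = all killed).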

SMILES	pest or weed control at 160 µg/disc, 160 µg/well (Diabrotica balteata)	mortality at 500 g/ha (Nezara viridula)	mortality at 20 mg/m2 [1]	mortality at 500 g/ha (Spodoptera frugiperda)	mortality at 4 mg/m2 [2]	mortality at 20 mg/m2 [2]	mortality at 20 mg/m2 [3]	mortality at 4 mg/m2 [4]	mortality at 20 mg/m2 [4]	pest or weed control at 5 µg/cm2, 5 µg/cm2 (Ctenocephalides felis [5])	mortality at 500 g/ha (Myzus persicae [6])	mortality at 4 ppm (Myzus persicae [7])	mortality at 500 g/ha (Nilaparvata lugens)	pest or weed control at 0.02 mg (Boophilus microplus)	mortality at 100 ppm (Ctenocephalides felis [8])	mortality at 4 mg/m2 [3]	mortality at 4 mg/m2 ([1]; surface concentration 4 mg/m^2, 30 minutes exposure)
C[C@@H](NC(=O)c1cc(Cl)cc(S(=O)(=O)C(F)(F)F)c1)c1ncnn1-c1ncc(F)cc1F [Example I-078]	100%	100%	80 to 100%	100%	80 to 100%	80 to 100%	85 to 100%	80 to 100%	90 to 100%	–	–	–	–	–	–	–	–
C[C@@H](NC(=O)c1cc(Cl)cc(S(=O)(=O)c2ccc(F)cc2)c1)c1ncnn1-c1ncccn1 [Example I-043]	100%	100%	80 to 100%	100%	80 to 100%	80 to 100%	–	80 to 100%	90 to 100%	90%	90%	100%	100%	100%	100%	–	–
C[C@@H](NC(=O)c1cc(Cl)cc(S(=O)(=O)C(F)(F)F)c1)c1ncnn1-c1cnccn1 [Example I-074]	100%	100%	80 to 100%	100%	–	80 to 100%	–	–	90 to 100%	90%	90%	100%	–	100%	100%	–	–
C[C@@H](NC(=O)c1cc(Cl)cc([S+](C)[O-])c1)c1ncnn1-c1ccc(C#N)cn1 (some centres unmarked) [Example I-070]	100%	100%	80 to 100%	100%	80 to 100%	80 to 100%	85 to 100%	80 to 100%	90 to 100%	100%	100%	100%	–	100%	100%	85 to 100%	–
C[C@@H](NC(=O)c1cc(Cl)cc(S(=O)(=O)C(F)(F)F)c1)c1ncnn1-c1ccc(C#N)cn1 [Example I-067]	100%	100%	80 to 100%	100%	80 to 100%	80 to 100%	–	80 to 100%	90 to 100%	90%	–	100%	–	80%	100%	–	–
C[C@H](NC(=O)c1cc(Cl)cc([S+]([O-])CC(F)(F)F)c1)c1ncnn1-c1ncccn1 (stereo partly drawn) [Example I-092, 3-chloro-N-{(1S)-1-[1-(pyrimidin-2-yl)-1H-1,2,4-triazol-5-yl]ethyl}-5-[(2,2,2-trifluoroethyl)sulfinyl]benzamide]	100%	100%	–	–	80 to 100%	80 to 100%	–	80 to 100%	90 to 100%	80%	100%	100%	100%	–	–	85 to 100%	–
C[C@H](NC(=O)c1cc(Cl)cc(S(C)(=O)=O)c1)c1nc(C(F)(F)F)nn1-c1ncccn1 [Example I-091, 3-chloro-N-{(1S)-1-[1-(2-pyrimidinyl)-3-(trifluoromethyl)-1H-1,2,4-triazol-5-yl]ethyl}-5-(methylsulfonyl)benzamide]	100%	100%	–	83%	80 to 100%	80 to 100%	85 to 100%	80 to 100%	90 to 100%	100%	90%	100%	–	–	100%	–	–
CC(c1ncnn1-c1ncccn1)N(CCC(F)(F)F)C(=O)c1cc(Cl)cc(S(C)(=O)=O)c1 (centres unmarked) [Example I-039]	100%	100%	–	–	–	–	–	–	–	100%	100%	100%	100%	100%	100%	–	–
C[C@@H](NC(=O)c1cc(Cl)cc(S(=O)(=O)C(F)(F)F)c1)c1ncnn1-c1ccccn1 [Example I-068]	100%	100%	80 to 100%	100%	80 to 100%	80 to 100%	85 to 100%	80 to 100%	90 to 100%	90%	–	90%	–	100%	100%	85 to 100%	80 to 100%
